From ChEMBL document CHEMBL5380816, “Inclusion of Nitrofurantoin into the Realm of Cancer Chemotherapy via Biology-Oriented Synthesis and Drug Repurposing” (J Med Chem, 2023)
Activity calls are given as the source filed them. The rule behind the calls is not given here.

How the values were obtained:
MCF7 [1] = assay: Induction of apoptosis in human MCF7 cells assessed as decrease in Bcl-2 expression level incubated for 72 hrs relative to 5-fluorouracil; format: functional; parameters: scale not given: the % may be the effect or the level left
MCF7 [2] = assay: Induction of apoptosis in human MCF7 cells assessed as ratio of gene expression activity in pro apoptotic Bax to anti apoptotic Bcl-2; format: functional
MCF7 [3] = assay: Potency index, ratio of 5-fluorouracil IC50 to test compound IC50 for antiproliferative activity against human MCF7 cells; format: functional
Caco-2 [4] = assay: Induction of apoptosis in human Caco-2 cells assessed as increase in Bax expression level relative to 5-fluorouracil; format: functional
HepG2 [5] = assay: Induction of apoptosis in human HepG2 cells assessed as increase in Bax expression level relative to nitrofurantoin; format: functional
Caco-2 [6] = assay: Induction of apoptosis in human Caco-2 cells assessed as decrease in Bcl-2 expression level incubated for 72 hrs relative to nitrofurantoin; format: functional; parameters: scale not given: the % may be the effect or the level left
[7] = Selectivity index, ratio of IC50 for human WI-38 cells to IC50 for human HeLa cells; format: toxicity; settings: WI-38 cells versus HeLa cells, read-out: Ratio IC50
HepG2 [8] = assay: Induction of apoptosis in human HepG2 cells assessed as increase in Bax expression level relative to control; format: functional
[9] = Selectivity index, ratio of IC50 for human WI-38 cells to IC50 for human MCF7 cells; format: toxicity; settings: WI-38 cells versus MCF7 cells, read-out: Ratio IC50
HeLa [10] = assay: Induction of apoptosis in human HeLa cells assessed as total apoptotic cells incubated at 0.11 uM for 72 hrs by annexin V-FITC based propidium iodide dual staining assay (reference value: 0 +/- 0.035%); format: functional
HepG2 [11] = assay: Anticancer activity against human HepG2 cells incubated for 72 hrs by MTT assay; format: functional, cell-based; settings: HepG2, 72 h
[12] = biological target: T1, Tumour suppressor p53/oncoprotein Mdm2 (Homo sapiens, UniProt P04637+Q00987); assay: Potency index, ratio of nitrofurantoin IC50 to compound IC50 for inhibition of human recombinant MDM2/p53 interaction; format: protein assay
Target sequence in this assay (P04637 whole entry, looked up): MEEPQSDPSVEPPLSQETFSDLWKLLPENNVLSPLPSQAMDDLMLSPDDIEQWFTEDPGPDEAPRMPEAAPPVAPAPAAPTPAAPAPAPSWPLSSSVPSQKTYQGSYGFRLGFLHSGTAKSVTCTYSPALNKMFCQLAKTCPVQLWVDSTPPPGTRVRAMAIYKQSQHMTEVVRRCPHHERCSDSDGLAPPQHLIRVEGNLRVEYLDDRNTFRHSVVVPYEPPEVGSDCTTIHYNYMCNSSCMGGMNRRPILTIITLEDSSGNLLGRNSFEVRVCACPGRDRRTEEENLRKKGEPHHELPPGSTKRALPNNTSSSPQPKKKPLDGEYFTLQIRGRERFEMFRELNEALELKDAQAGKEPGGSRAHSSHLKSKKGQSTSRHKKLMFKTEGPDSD
Target sequence in this assay (Q00987 whole entry, looked up): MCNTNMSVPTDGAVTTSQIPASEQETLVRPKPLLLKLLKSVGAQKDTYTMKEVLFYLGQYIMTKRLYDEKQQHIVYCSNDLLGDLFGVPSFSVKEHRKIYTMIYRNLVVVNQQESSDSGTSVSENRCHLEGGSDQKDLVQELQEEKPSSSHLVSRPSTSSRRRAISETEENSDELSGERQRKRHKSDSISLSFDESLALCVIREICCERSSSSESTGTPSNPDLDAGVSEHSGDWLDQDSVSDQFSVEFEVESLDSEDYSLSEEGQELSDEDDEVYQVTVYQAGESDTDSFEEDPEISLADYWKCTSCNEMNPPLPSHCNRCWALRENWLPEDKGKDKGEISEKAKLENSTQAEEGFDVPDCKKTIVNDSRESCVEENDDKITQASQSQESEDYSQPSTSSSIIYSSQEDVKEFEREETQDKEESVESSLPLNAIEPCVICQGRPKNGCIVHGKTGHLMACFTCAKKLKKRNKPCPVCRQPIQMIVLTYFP

HepG2 [13] = assay: Induction of apoptosis in human HepG2 cells assessed as ratio of gene expression activity in pro apoptotic Bax to anti apoptotic Bcl-2; format: functional
Caco-2 [14] = assay: Induction of apoptosis in human Caco-2 cells assessed as ratio of gene expression activity in pro apoptotic Bax to anti apoptotic Bcl-2; format: functional
HepG2 [15] = assay: Induction of apoptosis in human HepG2 cells assessed as decrease in Bcl-2 expression level incubated for 72 hrs relative to nitrofurantoin; format: functional; parameters: scale not given: the % may be the effect or the level left
[16] = Selectivity index, ratio of IC50 for human WI-38 cells to IC50 for human Caco-2 cells
HeLa [17] = assay: Induction of apoptosis in human HeLa cells assessed as increase in Bax expression level relative to nitrofurantoin; format: functional
[18] = Selectivity index, ratio of IC50 for human WI-38 cells to IC50 for human HepG2 cells; format: toxicity; settings: WI-38 cells versus HepG2 cells, read-out: Ratio IC50
HeLa [19] = assay: Induction of apoptosis in human HeLa cells assessed as decrease in Bcl-2 expression level incubated for 72 hrs relative to nitrofurantoin; format: functional; parameters: scale not given: the % may be the effect or the level left
MCF7 [20] = assay: Induction of apoptosis in human MCF7 cells assessed as increase in Bax expression level relative to 5-fluorouracil; format: functional
MCF7 [21] = assay: Induction of apoptosis in human MCF7 cells assessed as increase in Bax expression level relative to nitrofurantoin; format: functional
Caco-2 [22] = assay: Induction of apoptosis in human Caco-2 cells assessed as late apoptotic cells incubated at 0.11 uM for 72 hrs by annexin V-FITC based propidium iodide dual staining assay (reference value: 0.02%); format: functional
MCF7 [23] = assay: Anticancer activity against human MCF7 cells incubated for 72 hrs by MTT assay; format: functional, cell-based; settings: MCF7, 72 h
Caco-2 [24] = assay: Anticancer activity against human Caco-2 cells incubated for 72 hrs by MTT assay; format: functional, cell-based; settings: Caco-2, 72 h
HeLa [25] = assay: Induction of apoptosis in human HeLa cells assessed as decrease in Bcl-2 expression level incubated for 72 hrs relative to 5-fluorouracil; format: functional; parameters: scale not given: the % may be the effect or the level left
MCF7 [26] = assay: Induction of apoptosis in human MCF7 cells assessed as decrease in Bcl-2 expression level incubated for 72 hrs relative to nitrofurantoin; format: functional; parameters: scale not given: the % may be the effect or the level left
HeLa [27] = assay: Induction of apoptosis in human HeLa cells assessed as increase in Bax expression level relative to 5-fluorouracil; format: functional
HepG2 [28] = assay: Potency index, ratio of 5-fluorouracil IC50 to test compound IC50 for antiproliferative activity against human HepG2 cells; format: functional
HepG2 [29] = assay: Induction of apoptosis in human HepG2 cells assessed as increase in Bax expression level relative to 5-fluorouracil; format: functional
[30] = biological target: T1, Tumour suppressor p53/oncoprotein Mdm2; assay: Inhibition of human recombinant MDM2/p53 interaction measured after 10 mins by ELISA method; format: protein assay
Target sequence in this assay (P04637 whole entry): as the sequence (P04637 whole entry, looked up) above
Target sequence in this assay (Q00987 whole entry): as the sequence (Q00987 whole entry, looked up) above

MCF7 [31] = assay: Antitumor activity against human MCF7 cells xenografted in immunocompromised BALB/c mouse model assessed as tumor size reduction administered at 50 mg/kg, ip for 21 days; format: functional, organism-based; settings: time 21.0 day
Caco-2 [32] = assay: Induction of apoptosis in human Caco-2 cells assessed as increase in Bax expression level relative to nitrofurantoin; format: functional
HeLa [33] = assay: Induction of apoptosis in human HeLa cells assessed as ratio of gene expression activity in pro apoptotic Bax to anti apoptotic Bcl-2; format: functional
[34] = Cytotoxicity in human WI-38 cells assessed as reduction in cell viability incubated for 72 hrs by MTT assay; format: toxicity, cell-based
MCF7 [35] = assay: Antitumor activity against human MCF7 cells xenografted in immunocompromised BALB/c mouse model assessed as decrease in tumor maas administered at 50 mg/kg, ip for 21 days relative to control; format: functional; parameters: scale not given: the % may be the effect or the level left; settings: time 21 day
[36] = Cytotoxicity in human WI-38 cells assessed as safe dose incubated for 72 hrs by MTT assay; format: toxicity, cell-based; settings: read-out: EC100
Caco-2 [37] = assay: Induction of apoptosis in human Caco-2 cells assessed as decrease in Bcl-2 expression level incubated for 72 hrs relative to 5-fluorouracil; format: functional; parameters: scale not given: the % may be the effect or the level left
HeLa [38] = assay: Anticancer activity against human HeLa cells incubated for 72 hrs by MTT assay; format: functional, cell-based
HeLa [39] = assay: Induction of apoptosis in human HeLa cells assessed as increase in Bax expression level relative to control; format: functional
HepG2 [40] = assay: Induction of apoptosis in human HepG2 cells assessed as decrease in Bcl-2 expression level incubated for 72 hrs relative to 5-fluorouracil; format: functional; parameters: scale not given: the % may be the effect or the level left
MCF7 [41] = assay: Induction of apoptosis in human MCF7 cells assessed as viable cells incubated at 0.017 uM for 72 hrs by annexin V-FITC based propidium iodide dual staining assay (reference value: 99.9%); format: functional; settings: read-out: Activity
HepG2 [42] = assay: Induction of apoptosis in human HepG2 cells assessed as total apoptotic cells incubated at 0.017 uM for 72 hrs by annexin V-FITC based propidium iodide dual staining assay (reference value: 0.99 +/- 0.02%); format: functional
MCF7 [43] = assay: Induction of apoptosis in human MCF7 cells assessed as early apoptotic cells incubated at 0.098 uM for 72 hrs by annexin V-FITC based propidium iodide dual staining assay (reference value: 0.06%); format: functional
HeLa [44] = assay: Induction of apoptosis in human HeLa cells assessed as necrotic cells incubated at 0.097 uM for 72 hrs by annexin V-FITC based propidium iodide dual staining assay (reference value: 0%); format: functional

C#CCN1C(=O)CN(/N=C/c2ccc([N+](=O)[O-])o2)C1=O
Activity (MCF7 [1]): 30%
Ratio (MCF7 [2]): 4.453
Ratio IC50 (MCF7 [3]): 1.2
Activity (Caco-2 [4]): 70%
Activity (HepG2 [5]): 70%
Activity (Caco-2 [6]): 30%
selectivity ratio [7]: 1.16
Activity (HepG2 [8]): 300%
selectivity ratio [9]: 2.79
Activity (HeLa [10]): 25.17%
IC50 (HepG2 [11]): 89 nM
Ratio IC50 [12]: 2.7
Ratio (HepG2 [13]): 11.74
Ratio (Caco-2 [14]): 5.278
Activity (HepG2 [15]): 30%
Ratio IC50 [16]: 3.13
Activity (HeLa [17]): 70%
selectivity ratio [18]: 3.46
Activity (HeLa [19]): 30%
Activity (MCF7 [20]): 70%
Activity (MCF7 [21]): 70%
Activity (Caco-2 [22]): 42.24%
IC50 (MCF7 [23]): 111 nM
IC50 (Caco-2 [24]): 99 nM
Activity (HeLa [25]): 30%
Activity (MCF7 [26]): 30%
Activity (HeLa [27]): 70%
Ratio IC50 (HepG2 [28]): 1.2
Activity (HepG2 [29]): 70%
IC50 [30]: 590 nM
Activity (MCF7 [31]): Active
Activity (Caco-2 [32]): 70%
Ratio (HeLa [33]): 3.004
IC50 at 72 h [34]: 306 nM
Activity (MCF7 [35]): ~65%
MNTC at 72 h [36]: 110 nM
Activity (Caco-2 [37]): 30%
IC50 (HeLa [38]): 265 nM
Activity (HeLa [39]): 300%
Activity (HepG2 [40]): 30%

O=c1[nH]cc(F)c(=O)[nH]1 [FLUOROURACIL]
Ratio (MCF7 [2]): 1.246
selectivity ratio [7]: 1.02
selectivity ratio [9]: 0.865
IC50 (HepG2 [11]): 178 nM
Ratio (HepG2 [13]): 1.247
Ratio (Caco-2 [14]): 1.187
Ratio IC50 [16]: 0.76
selectivity ratio [18]: 1.13
IC50 (MCF7 [23]): 235 nM
IC50 (Caco-2 [24]): 266 nM
viability at 0.017 µM (MCF7 [41]): 90.9%
Activity (MCF7 [31]): Active
Ratio (HeLa [33]): 1.257
IC50 at 72 h [34]: 192 nM
Activity (MCF7 [35]): ~65%
MNTC at 72 h [36]: 17 nM
IC50 (HeLa [38]): 199 nM
Activity (HepG2 [42]): 3.9%

O=C(CN1C(=O)CN(/N=C/c2ccc([N+](=O)[O-])o2)C1=O)c1ccc(Cl)cc1
Activity (MCF7 [1]): 30%
Activity (MCF7 [43]): 4.77%
Ratio (MCF7 [2]): 5.104
Ratio IC50 (MCF7 [3]): 1.2
Activity (Caco-2 [4]): 70%
Activity (HepG2 [5]): 70%
Activity (Caco-2 [6]): 30%
selectivity ratio [7]: 4.04
Activity (HepG2 [8]): 300%
selectivity ratio [9]: 2.14
IC50 (HepG2 [11]): 110 nM
Ratio IC50 [12]: 2.4
Ratio (HepG2 [13]): 4.215
Ratio (Caco-2 [14]): 3.396
Activity (HepG2 [15]): 30%
Ratio IC50 [16]: 1.87
Activity (HeLa [17]): 70%
selectivity ratio [18]: 2.29
Activity (HeLa [19]): 30%
Activity (MCF7 [20]): 70%
Activity (MCF7 [21]): 70%
IC50 (MCF7 [23]): 117 nM
IC50 (Caco-2 [24]): 134 nM
Activity (HeLa [25]): 30%
Activity (MCF7 [26]): 30%
Activity (HeLa [27]): 70%
Ratio IC50 (HepG2 [28]): 1.6
Activity (HepG2 [29]): 70%
IC50 [30]: 670 nM
Activity (Caco-2 [32]): 70%
Ratio (HeLa [33]): 11.09
IC50 at 72 h [34]: 251 nM
MNTC at 72 h [36]: 98 nM
Activity (Caco-2 [37]): 30%
IC50 (HeLa [38]): 62 nM
Activity (HeLa [39]): 300%
Activity (HepG2 [40]): 30%

NS(=O)(=O)c1ccc(-n2cc(CN3C(=O)CN(/N=C/c4ccc([N+](=O)[O-])o4)C3=O)nn2)cc1
Activity (MCF7 [1]): 30%
Ratio (MCF7 [2]): 10.4
Ratio IC50 (MCF7 [3]): 1.2
Activity (Caco-2 [4]): 70%
Activity (HepG2 [5]): 70%
Activity (Caco-2 [6]): 30%
selectivity ratio [7]: 3.08
selectivity ratio [9]: 3.36
IC50 (HepG2 [11]): 309 nM
Ratio IC50 [12]: 3.6
Ratio (HepG2 [13]): 2.326
Ratio (Caco-2 [14]): 7.328
Activity (HepG2 [15]): 30%
Ratio IC50 [16]: 3.14
Activity (HeLa [17]): 70%
selectivity ratio [18]: 0.807
Activity (HeLa [19]): 30%
Activity (MCF7 [20]): 70%
Activity (MCF7 [21]): 70%
IC50 (MCF7 [23]): 74 nM
IC50 (Caco-2 [24]): 80 nM
Activity (HeLa [25]): 30%
Activity (MCF7 [26]): 30%
Activity (HeLa [44]): 4.26%
Activity (HeLa [27]): 70%
Activity (HepG2 [29]): 70%
IC50 [30]: 410 nM
Activity (Caco-2 [32]): 70%
Ratio (HeLa [33]): 6.36
IC50 at 72 h [34]: 249 nM
MNTC at 72 h [36]: 97 nM
Activity (Caco-2 [37]): 30%
IC50 (HeLa [38]): 81 nM
Activity (HepG2 [40]): 30%
